In US20260285853A1, “COMPOUNDS AND METHODS FOR MODULATING SPLICING” (REMIX THERAPEUTICS INC., priority 2023, published 2026):
Like-named read-outs stand apart in the source and are kept apart here.

How the values were obtained:
Type in all cases: cell-based
[1] = tested on: MYB mRNA; assay: Splicing RT-qPCR assay (THP), Table 2A
[2] = tested on: HTT mRNA; assay: Splicing RT-qPCR assay (THP), Table 2A
[3] = tested on: SH-SY5Y (human neuroblastoma) cells; assay: Cell viability, Cell Titer Glo 2.0 assay; conditions: read-out: Viability SHSY5Y.3 GI50
Method in brief: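 Toxicity screen in SH-SY5Y cells. Compounds were serially diluted in DMSO and then in medium, giving 0.1% DMSO final. Viability was read with CellTiter-Glo 2.0 after 72 h at 37 °C, 5% CO2, against medium-only blank wells.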

[4] = tested on: HTT mRNA; assay: Gene panel canonical junction qPCR assay, decrease in CJ mRNA, Table 3
Method in brief: (§1)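 A673 (DMEM, 10% FBS, 15,000 cells/well) or K562 (IMDM, 10% FBS) cells treated 24 h at 37 °C with 11-point 3-fold dilutions, top 10 uM, DMSO ≤0.25%. Canonical exon-exon junction mRNA measured by RT-qPCR, normalized to GAPDH, GUSB or PPIA and DMSO (ΔΔCt); IC50 from 4-parameter logistic fit.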

[5] = tested on: MYB mRNA; assay: as above
Method in brief: as §1

[6] = Table 2A (THP), AJ mRNA increase, read-out: MYB AJ (increase in alternative junction mRNA, AC50)
[7] = Table 2A (THP), CJ mRNA decrease, read-out: MYB CJ (decrease in canonical junction mRNA, IC50)
[8] = Table 2A (THP), AJ mRNA increase, read-out: HTT AJ (increase in alternative junction mRNA, AC50)
[9] = Table 2A (THP), CJ mRNA decrease, read-out: HTT CJ (decrease in canonical junction mRNA, IC50)
[10] = decrease in canonical junction (CJ) mRNA, gene panel qPCR, Table 3
[11] = decrease in CJ mRNA levels, canonical junction qPCR, gene panel

SMILES | AC50 [1, 6] | IC50 [1, 7] | AC50 [2, 8] | IC50 [2, 9] | GI50 [3] | IC50 [4, 10] | IC50 [5, 10] | AC50 ([1]; Table 2A, THP, MYB alternative junction (AJ) mRNA, read-out: MYB AJ (AC50, increase in alternative junction mRNA)) | IC50 ([1]; Table 2A, THP, MYB canonical junction (CJ) mRNA, read-out: MYB CJ (IC50, decrease in canonical junction mRNA)) | AC50 ([2]; Table 2A, THP, HTT alternative junction (AJ) mRNA, read-out: HTT AJ (AC50, increase in alternative junction mRNA)) | IC50 ([2]; Table 2A, THP, HTT canonical junction (CJ) mRNA, read-out: HTT CJ (IC50, decrease in canonical junction mRNA)) | IC50 [4, 11] | IC50 [5, 11]
COc1cc2nn(C)cc2cc1NC(=O)c1c(NCCO)cc(N2CCC(NC3CC3)CC2)c2cn(C)nc12 [Compound 441, 4-[4-(cyclopropylamino)-1-piperidyl]-6-(2-hydroxyethylamino)-N-(6-methoxy-2-methyl-indazol-5-yl)-2-methyl-indazole-7-carboxamide] | 1 to 10 µM | 1 to 10 µM | 1 to 10 µM | 1 to 10 µM | 1 to 10 µM | 1 to 10 µM | 1 to 10 µM | – | – | – | – | – | –
COc1c(NC(=O)c2ccc(N3CCC(NC4CC4)CC3)c3c2OCO3)cn2cc(C)nc2c1F [Compound 650, 7-[4-(cyclopropylamino)-1-piperidyl]-N-(8-fluoro-7-methoxy-2-methyl-imidazo[1,2-a]pyridin-6-yl)-1,3-benzodioxole-4-carboxamide] | – | – | – | – | 0.1 to 1 µM | – | – | < 0.1 µM | < 0.1 µM | 0.1 to 1 µM | < 0.1 µM | < 0.1 µM | < 0.1 µM
CCNC1CCN(c2ccc(C(=O)Nc3nc4c(C)nc(C)cc4[nH]3)c3nn(C)cc23)CC1 [Compound 572, N-(4,6-dimethyl-1H-imidazo[4,5-c]-pyridin-2-yl)-4-[4-(ethylamino)-1-piperidyl]-2-methyl-indazole-7-carboxamide] | 1 to 10 µM | 1 to 10 µM | > 10 µM | 1 to 10 µM | 1 to 10 µM | 1 to 10 µM | 1 to 10 µM | – | – | – | – | – | –
Cc1cn2cc(NC(=O)c3ccc(N4CCNC(C)CC4)c4cn(C)nc34)nc2c(C)n1 (stereo not drawn) [Compound 535] | 1 to 10 µM | 1 to 10 µM | 1 to 10 µM | 1 to 10 µM | 1 to 10 µM | 1 to 10 µM | 1 to 10 µM | – | – | – | – | – | –
Cc1cn2cc(NC(=O)c3c(F)cc(N4CCC(NC5CC5)CC4)c4cn(C)nc34)nc2c(CNS(C)(=O)=O)n1 [Compound 393, 4-(4-(cyclopropylamino)piperidin-1-yl)-6-fluoro-2-methyl-N-(6-methyl-8-(methylsulfonamidomethyl)imidazo[1,2-a]pyrazin-2-yl)-2H-indazole-7-carboxamide 2,2,2-trifluoroacetate] | 0.1 to 1 µM | 0.1 to 1 µM | > 10 µM | > 10 µM | 1 to 10 µM | > 10 µM | 0.1 to 1 µM | – | – | – | – | – | –
Cc1cn2cc(NC(=O)c3ccc(N4CCC(NC5CC5)CC4)c4cn(C)nc34)nc2c(Cl)n1 [Compound 479, N-(8-chloro-6-methyl-imidazo[1,2-a]-pyrazin-2-yl)-4-[4-(cyclopropylamino)-1-piperidyl]-2-methyl-indazole-7-carboxamide] | 0.1 to 1 µM | 0.1 to 1 µM | > 10 µM | > 10 µM | 1 to 10 µM | > 10 µM | 0.1 to 1 µM | – | – | – | – | – | –
Cc1c2cc(NC(=O)c3c(F)cc(N4CCC(NC5CC5)CC4)c4cn(C)nc34)cc(F)c2nn1C [Compound 403, 4-[4-(cyclopropyl-amino)-1-piperidyl]-6-fluoro-N-(7-fluoro-2,3-dimethyl-indazol-5-y1)-2-methyl-indazole-7-carboxamide] | > 10 µM | > 10 µM | > 10 µM | > 10 µM | 0.1 to 1 µM | > 10 µM | > 10 µM | – | – | – | – | – | –
CCNC1CCN(c2ccc(C(=O)Nc3cc(Oc4cccc(Cl)c4)c4nc(C)cn4c3)c3nn(C)cc23)CC1 [Compound 314, N-[8-(3-chlorophenoxy)-2-methylimidazo-[1,2-a]pyridin-6-yl]-4-[4-(ethylamino)-1-piperidyl]-2-methyl-indazole-7-carboxamide] | < 0.1 µM | 0.1 to 1 µM | 1 to 10 µM | 1 to 10 µM | 0.1 to 1 µM | 1 to 10 µM | 0.1 to 1 µM | – | – | – | – | – | –
COc1cc2nn(C)cc2cc1NC(=O)c1ccc(N2CC3(CNC3)C2)c2cn(C)nc12 [Compound 506] | 0.1 to 1 µM | 0.1 to 1 µM | 1 to 10 µM | 1 to 10 µM | > 10 µM | 1 to 10 µM | 0.1 to 1 µM | – | – | – | – | – | –
